Data from ChEMBL document CHEMBL1201862, “PubChem BioAssay data set” (2004).
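Each compound was tested at five concentrations against cells in 96-well plates for 48 hours. At the GI50, growth is halved.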 The source made the active and inactive calls. Rule as the data show it: active = GI50 up to about 1.1 µM and inactive = higher.

Key:
Assay in all cases: NCI tumour cell line growth inhibition, 48 h
DMS-114 = system: DMS-114
DMS-273 = system: DMS-273
HOP-18 = system: HOP-18
KM-20L2 = system: KM-20L2
LXFL 529 = system: LXFL 529
RXF 631 = system: RXF 631
SNB-78 = system: SNB-78
XF498 = system: XF498
BT-549 = system: BT-549

Measured: GI50

C/C=C1\CN2CCc3c([nH]c4ccccc34)C2CC1CCO (stereo not given)
inactive: DMS-114 > 100 µM | DMS-273 > 100 µM | HOP-18 > 100 µM | KM-20L2 > 100 µM | LXFL 529 > 100 µM | RXF 631 > 100 µM | SNB-78 > 100 µM | XF498 > 100 µM

N#CC(C#N)=Cc1ccc(CP(=O)(O)O)cc1
inactive: DMS-114 > 100 µM | DMS-273 > 100 µM | HOP-18 > 100 µM | KM-20L2 > 100 µM | LXFL 529 > 100 µM | RXF 631 > 100 µM | SNB-78 > 100 µM | XF498 > 100 µM

Cc1ccc2nc3c(C)c(Cl)c(=O)cc-3sc2c1
inactive: BT-549 20.9 µM | DMS-114 2.97 µM | DMS-273 22.4 µM | HOP-18 19.7 µM | KM-20L2 78 µM | LXFL 529 4.94 µM | RXF 631 24.3 µM | SNB-78 32.2 µM | XF498 10 µM
